Patent publication US20250236607A1, “CYCLIN-DEPENDENT KINASE 9 (CDK9) DEGRADERS AND METHODS OF USING THEREOF” (OHIO STATE INNOVATION FOUNDATION, priority 2022, published 2025)
≈ marks a conversion by molar mass, not a printed value. Where “and” joins values, the source holds several entries; their conditions need not be identical. Identical values can stand only once. Like-named read-outs stand apart in the source and are kept apart here.

How the values were obtained:
[1] = Chromatographic log D determination (log k′80); assay type: physicochemical; conditions: chromatographic log D, PLRP-S column, pH 7.72
Procedure, shortened: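 Samples were diluted from DMSO stock to 122 μM in acetonitrile and run on a PLRP-S column in 20:80 aqueous ammonium acetate/acetonitrile, pH 7.72, at 1 mL/min with UV detection at 337 nm. log k′80 used a fixed 0.3 min dead time derived from a five-compound standard set. Runs were done in triplicate.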

CDK9 [2] = biological target: T1, CDK9 (Homo sapiens, UniProt P50750+Q96SW2); assay: CDK9 degradation, automated western blot, triazole-containing AT7519 degraders (MV411); assay type: cell-based; conditions: for DC50: CDK9 degradation, MV411 cells
T1 construct: endogenous in cells
T1 sequence (P50750 whole entry): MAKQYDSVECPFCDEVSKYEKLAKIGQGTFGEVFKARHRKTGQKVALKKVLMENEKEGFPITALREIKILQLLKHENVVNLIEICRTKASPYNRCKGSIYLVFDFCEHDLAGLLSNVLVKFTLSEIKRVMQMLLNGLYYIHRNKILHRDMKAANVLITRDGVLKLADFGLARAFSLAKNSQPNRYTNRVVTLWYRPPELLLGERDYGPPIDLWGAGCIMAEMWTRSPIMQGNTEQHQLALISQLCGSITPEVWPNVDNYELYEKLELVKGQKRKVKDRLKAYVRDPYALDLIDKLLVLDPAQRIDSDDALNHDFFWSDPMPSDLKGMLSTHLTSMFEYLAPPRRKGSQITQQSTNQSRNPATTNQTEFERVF
T1 sequence (O60563 whole entry partner): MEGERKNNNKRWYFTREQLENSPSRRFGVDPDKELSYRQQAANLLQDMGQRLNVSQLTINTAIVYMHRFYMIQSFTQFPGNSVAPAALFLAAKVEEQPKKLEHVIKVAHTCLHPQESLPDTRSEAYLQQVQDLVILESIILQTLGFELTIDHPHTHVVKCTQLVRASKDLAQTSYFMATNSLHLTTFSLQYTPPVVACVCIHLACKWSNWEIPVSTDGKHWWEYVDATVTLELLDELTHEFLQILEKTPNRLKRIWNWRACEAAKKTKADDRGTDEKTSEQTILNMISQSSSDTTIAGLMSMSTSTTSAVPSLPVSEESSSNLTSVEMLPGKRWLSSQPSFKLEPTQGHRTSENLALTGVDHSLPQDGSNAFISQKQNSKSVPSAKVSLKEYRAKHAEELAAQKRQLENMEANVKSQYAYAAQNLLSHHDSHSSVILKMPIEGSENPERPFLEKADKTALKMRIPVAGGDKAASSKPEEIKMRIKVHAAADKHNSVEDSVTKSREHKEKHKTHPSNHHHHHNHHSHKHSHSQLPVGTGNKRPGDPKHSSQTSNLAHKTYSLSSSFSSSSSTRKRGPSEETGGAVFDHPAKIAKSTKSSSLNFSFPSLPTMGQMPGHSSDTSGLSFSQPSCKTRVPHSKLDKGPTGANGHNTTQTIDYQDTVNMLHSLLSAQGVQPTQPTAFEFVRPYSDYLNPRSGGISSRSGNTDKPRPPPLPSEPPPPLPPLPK
T1 sequence (Q96SW2 whole entry): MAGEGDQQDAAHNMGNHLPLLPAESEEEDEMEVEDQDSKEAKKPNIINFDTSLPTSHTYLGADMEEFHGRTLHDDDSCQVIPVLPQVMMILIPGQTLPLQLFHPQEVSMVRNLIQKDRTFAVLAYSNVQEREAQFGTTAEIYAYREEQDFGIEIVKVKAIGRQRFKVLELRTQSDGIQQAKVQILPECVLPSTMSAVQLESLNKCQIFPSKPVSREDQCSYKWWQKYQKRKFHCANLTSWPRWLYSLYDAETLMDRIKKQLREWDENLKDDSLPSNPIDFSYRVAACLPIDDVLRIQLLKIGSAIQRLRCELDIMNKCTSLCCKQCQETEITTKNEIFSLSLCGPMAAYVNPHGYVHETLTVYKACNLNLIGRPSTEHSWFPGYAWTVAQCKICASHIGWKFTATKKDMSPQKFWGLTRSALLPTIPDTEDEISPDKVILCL
T1 sequence (Q16531 whole entry partner): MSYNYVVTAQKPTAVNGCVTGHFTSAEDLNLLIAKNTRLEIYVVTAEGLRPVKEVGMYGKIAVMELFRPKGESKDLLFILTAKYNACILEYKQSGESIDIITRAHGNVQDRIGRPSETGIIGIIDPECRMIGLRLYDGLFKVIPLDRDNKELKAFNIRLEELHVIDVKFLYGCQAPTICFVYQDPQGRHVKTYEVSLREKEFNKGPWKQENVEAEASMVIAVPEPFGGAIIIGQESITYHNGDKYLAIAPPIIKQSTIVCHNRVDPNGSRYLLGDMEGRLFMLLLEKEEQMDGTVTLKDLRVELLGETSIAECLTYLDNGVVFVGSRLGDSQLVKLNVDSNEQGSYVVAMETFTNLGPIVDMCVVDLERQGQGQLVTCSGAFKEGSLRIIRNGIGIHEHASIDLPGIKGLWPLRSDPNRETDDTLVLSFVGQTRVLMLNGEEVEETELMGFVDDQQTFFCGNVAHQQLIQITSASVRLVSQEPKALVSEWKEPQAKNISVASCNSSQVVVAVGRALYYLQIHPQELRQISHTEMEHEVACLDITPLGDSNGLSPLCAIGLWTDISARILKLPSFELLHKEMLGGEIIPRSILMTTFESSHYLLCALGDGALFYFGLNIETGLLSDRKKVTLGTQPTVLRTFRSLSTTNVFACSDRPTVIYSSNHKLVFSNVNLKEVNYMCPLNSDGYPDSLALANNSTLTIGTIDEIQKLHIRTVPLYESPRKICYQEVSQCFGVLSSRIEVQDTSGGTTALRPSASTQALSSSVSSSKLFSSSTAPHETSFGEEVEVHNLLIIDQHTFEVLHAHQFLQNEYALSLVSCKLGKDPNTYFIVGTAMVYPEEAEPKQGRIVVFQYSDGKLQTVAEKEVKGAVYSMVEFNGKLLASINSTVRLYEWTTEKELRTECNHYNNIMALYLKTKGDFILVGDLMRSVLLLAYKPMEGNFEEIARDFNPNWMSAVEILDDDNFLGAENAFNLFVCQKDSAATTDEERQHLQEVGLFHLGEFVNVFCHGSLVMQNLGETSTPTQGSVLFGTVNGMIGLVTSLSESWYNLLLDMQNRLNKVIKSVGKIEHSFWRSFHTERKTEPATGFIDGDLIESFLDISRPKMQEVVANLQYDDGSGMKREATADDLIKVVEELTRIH
Experimental: (§1) The obtained compounds were tested in biological experiments to measure their potency in inhibiting the growth of AML cells and in their degradation of CDK9. These measurements are reported as half-maximum growth inhibitory and half-maximum degradation concentrations, IC50s and DC50s, respectively. Maximum percent degradation (Dmax) values were also obtained during the CDK9 degradation assessments. The common MTS assay was used to acquire the IC50 values, while the DC50 values were obtained using an automated western blot experiment. These values are presented in Table 2, along with pIC50 (log(nM IC50)) to more accurately reflect the differences/lack thereof in in vitro cytotoxicity. The notation “N:N*” represents the number of linker atoms on each side of the rigid triazole ring for a given degrader. Predicted log D values, calculated using the ChemAxon […], are also provided for each degrader. To characterize the physicochemical properties of the new degrader series, two additional assays were performed: a kinetic aqueous solubility assay and the chromatographic log D experiment described earlier. Aqueous solubility is shown in μM while experimentally determined log D is shown as log k′80. Details regarding the execution of each experiment are provided below.

MV411 cells = assay: MTS cytotoxicity assay against MV411 cells; assay type: cell-based
Experimental: as §1

[3] = pH 7.4
CDK9 [4] = biological target: T1, CDK9; assay: CDK9 degradation potency (DC50) of VIP152-based degraders; assay type: cell-based; conditions: VIP152-based series
MOLM13 cells [5] = assay: Protein shift experiment, cytotoxicity in FBS vs human serum, MOLM13; assay type: cell-based
Source text: In order to determine the suitability of the lead compounds for advanced biological studies, the four degraders (4.49, 4.62, 4.72 and 4.78) were selected for a protein-shift analysis due to their higher potency and solubility.

Kinetic solubility assay = conditions: kinetic solubility, PBS pH 7.4; for solubility at 1.5 h: phosphate buffered saline, pH 7.4, aqueous buffer, kinetic from dmso stock, Solubility (μM)
MOLM13 cells [6] = assay: Cytotoxicity against MOLM13 cells; assay type: cell-based
AML cells = assay: Drug washout experiment (cytotoxicity); assay type: cell-based; conditions: 6 h drugging, 48 h total
Experimental: To better evaluate the catalytic mechanism of action of this degrader series, a drug washout (WO) experiment was performed. This experiment involved the drugging of cells for six hours after which the cell media was replaced with a drug-free batch.

[7] = maximum percent CDK9 degradation
[8] = growth inhibition, MV411 cells, MTS, read-out: IC50
[9] = MOLM13, fetal bovine serum, read-out: IC50 (μM) FBS
[10] = MOLM13, human serum, read-out: IC50 (μM) HS
[11] = cytotoxicity, MOLM13 cells, read-out: IC50
[12] = Homo sapiens, MOLM-13, MOLM13, fetal bovine serum, read-out: IC50 (μM) FBS
[13] = MOLM-13, MOLM13, human serum, read-out: IC50 (μM) HS
[14] = Homo sapiens, MOLM-13, cytotoxicity, MOLM13 cells, read-out: IC50

SMILES: O=C1CCC(N2C(=O)c3cccc(OCCCn4cc(CCCCCN5CCC(NC(=O)c6n[nH]cc6NC(=O)c6c(Cl)cccc6Cl)CC5)nn4)c3C2=O)C(=O)N1 (centres unmarked) [Compound 4.7c, 4-(2,6-dichlorobenzamido)-N-(1-(5-(1-(3-((2-(2,6-dioxopiperidin-3-yl)-1,3-dioxoisoindolin-4-yl)oxy)propyl)-11H-1,2,3-triazol-4-yl)pentyl)piperidin-4-yl)-1H-pyrazole-3-carboxamide]
- logk′80 [1]: 0.106
- DC50 (CDK9 [2]): 404 nM
- Dmax (%) (CDK9 [2]; [7]): 58.6%
- pIC50 (MV411 cells; defined as log(nM IC50), MV411): 2.3
- IC50 (MV411 cells; [8]): 194 nM
- Solubility [3]: 31.3 µM (≈ 26.1 µg/mL)

SMILES: COc1cc(F)ccc1-c1cc(Nc2cc(CS(C)(=O)=NC(=O)CN3CCC(c4cn(CC(=O)N5CCN(CCCc6cccc7c6C(=O)N(C6CCC(=O)NC6=O)C7=O)CC5)nn4)CC3)ccn2)ncc1F (centres unmarked) [Compound 4.72, 2-(4-(1-(2-(4-(3-(2-(2,6-dioxopiperidin-3-yl)-1,3-dioxoisoindolin-4-yl)propyl)piperazin-1-yl)-2-oxoethyl)-1H-1,2,3-triazol-4-yl)piperidin-1-yl)-N-(((2-((5-fluoro-4-(4-fluoro-2-methoxyphenyl)pyridin-2-yl)amino)pyridin-4-yl)methyl)(methyl) (oxo)-16-sulfaneylidene) acetamide]
- DC50 (CDK9 [4]): 210 nM
- logk′80 [1]: 0.11
- IC50 (MOLM13 cells [5]; [9]): 0.47 µM
- IC50 (MOLM13 cells [5]; [10]): 0.55 µM
- Solubility (Kinetic solubility assay): 16 µM and 15.7 µM
- IC50 (MOLM13 cells [6]; MOLM13, read-out: potency): 150 nM
- IC50 (MOLM13 cells [6]; [11]): 180 nM

SMILES: O=C1CCC(N2C(=O)c3cccc(OCCCCn4cc(CCCCCN5CCC(NC(=O)c6n[nH]cc6NC(=O)c6c(Cl)cccc6Cl)CC5)nn4)c3C2=O)C(=O)N1 (centres unmarked) [Compound 4.8b, 4-(2,6-dichlorobenzamido)-N-(1-(5-(1-(4-((2-(2,6-dioxopiperidin-3-yl)-1,3-dioxoisoindolin-4-yl)oxy)butyl)-1H-1,2,3-triazol-4-yl)pentyl)piperidin-4-yl)-1H-pyrazole-3-carboxanmide]
- logk′80 [1]: 0.112
- DC50 (CDK9 [2]): 951 nM
- Dmax (%) (CDK9 [2]; [7]): 68.5%
- pIC50 (MV411 cells; defined as log(nM IC50), MV411): 2.1
- IC50 (MV411 cells; [8]): 130 nM
- Solubility [3]: 13.2 µM (≈ 11.2 µg/mL)

SMILES: COc1cc(F)ccc1-c1cc(Nc2cc(CS(C)(=O)=NC(=O)C3CCCN(Cc4cn(C5CN(C(=O)CNc6cccc7c6C(=O)N(C6CCC(=O)NC6=O)C7=O)C5)nn4)C3)ccn2)ncc1F (centres unmarked) [Compound 4.62]
- DC50 (CDK9 [4]): 150 nM
- logk′80 [1]: 0.11
- IC50 (MOLM13 cells [5]; [9]): 0.49 µM
- IC50 (MOLM13 cells [5]; [10]): 1.34 µM
- Solubility (Kinetic solubility assay): 13.8 µM (≈ 13.3 µg/mL)
- IC50 (MOLM13 cells [6]; [11]): 360 nM

SMILES: COc1cc(F)ccc1-c1cc(Nc2cc(CS(C)(=O)=NC(=O)CN3CCC(CN4CCC(COc5cccc6c5C(=O)N(C5CCC(=O)NC5=O)C6=O)CC4)CC3)ccn2)ncc1F (centres unmarked) [Compound 4.78, 2-(4-{[4-({[2-(2,6-dioxopiperidin-3-yl)-1,3-dioxo-2,3-dihydro-1H-isoindol-4-yl]-oxy}methyl)piperidin-1-yl]methyl}piperidin-1-yl)-N-{[(2-{[5-fluoro-4-(4-fluoro-2-methoxyphenyl)pyridin-2-yl]amino}pyridin-4-yl)methyl](methyl)oxo-λ^6-sulfanylidene}acetamide]
- DC50 (CDK9 [4]): 820 nM
- logk′80 [1]: 0.18
- IC50 (MOLM13 cells [5]; [12]): 0.52 µM
- IC50 (MOLM13 cells [5]; [13]): 0.49 µM
- solubility at 1.5 h (Kinetic solubility assay): 28.9 µM (≈ 26.4 µg/mL)
- IC50 (MOLM13 cells [6]; [14]): 410 nM

SMILES: COc1cc(F)ccc1-c1cc(Nc2cc(CS(C)(=O)=NC(=O)CN3CCN(Cc4cn(C5CN(C(=O)CNc6cccc7c6C(=O)N(C6CCC(=O)NC6=O)C7=O)C5)nn4)CC3)ccn2)ncc1F (centres unmarked) [Compound 4.49, 2-(4-((1-(1-((2-(2,6-dioxopiperidin-3-yl)-1,3-dioxoisoindolin-4-yl)glycyl)azetidin-3-yl)-1H-1,2,3-triazol-4-yl)methyl)piperazin-1-yl)-N-(((2-((5-fluoro-4-(4-fluoro-2-methoxyphenyl)pyridin-2-yl)amino)pyridin-4-yl)methyl)(methyl) (oxo)-16-sulfaneylidene) acetamide]
- DC50 (CDK9 [4]): 220 nM
- IC50 (MOLM13 cells [5]; [12]): 0.67 µM
- IC50 (MOLM13 cells [5]; [13]): 1.24 µM
- Solubility (Kinetic solubility assay): 58.2 µM (≈ 57 µg/mL)
- solubility at 1.5 h (Kinetic solubility assay): ~60 µM (≈ 58.8 µg/mL)
- IC50 (MOLM13 cells [6]; [14]): 420 nM
- IC50 (MOLM13 cells [6]; Homo sapiens, MOLM-13, text, MOLM13, read-out: potency): 420 nM

SMILES: O=C1CCC(N2C(=O)c3cccc(OCCCCCCn4cc(CCCCCCCN5CCC(NC(=O)c6n[nH]cc6NC(=O)c6c(Cl)cccc6Cl)CC5)nn4)c3C2=O)C(=O)N1 (centres unmarked) [Compound 4.9b]
- logk′80 [1]: 0.176
- retention of potency after drug washout (AML cells): retain their potency
- DC50 (CDK9 [2]): 61.4 nM
- Dmax (%) (CDK9 [2]; [7]): 78.0%
- pIC50 (MV411 cells; defined as log(nM IC50), MV411): 1.8
- IC50 (MV411 cells; [8]): 63.3 nM
- Solubility [3]: 4.70 µM (≈ 4.25 µg/mL)

SMILES: COc1cc(F)ccc1-c1cc(Nc2cc(CS(C)(=O)=NC(=O)CCc3cn(CCOCCOCCOc4cccc5c4C(=O)N(C4CCC(=O)NC4=O)C5=O)nn3)ccn2)ncc1F (centres unmarked) [Compound 4.34, 3-(1-(2-(2-(2-((2-(2,6-dioxopiperidin-3-yl)-1,3-dioxoisoindolin-4-yl)oxy)ethoxy)ethoxy)ethyl)-1H-1,2,3-triazol-4-yl)-N-(((2-((5-fluoro-4-(4-fluoro-2-methoxyphenyl)pyridin-2-yl)amino)pyridin-4-yl)methyl)(methyl)(oxo)-16-sulfaneylidene)propenamide]
- DC50 (CDK9 [4]): 70 nM
- logk′80 [1]: 0.13 and 0.16
- IC50 (MOLM13 cells [5]; [12]): 0.29 µM
- IC50 (MOLM13 cells [5]; [13]): 1.52 µM
- solubility at 1.5 h (Kinetic solubility assay): 5.2 µM (≈ 4.76 µg/mL)
- IC50 (MOLM13 cells [6]; [14]): 60 nM

SMILES: O=C1CCC(N2C(=O)c3cccc(OCCCCCCn4cc(CCCCCN5CCC(NC(=O)c6n[nH]cc6NC(=O)c6c(Cl)cccc6Cl)CC5)nn4)c3C2=O)C(=O)N1 (centres unmarked) [Compound 4.10, 4-(2,6-dichlorobenzamido)-N-(1-(5-(1-(6-((2-(2,6-dioxopiperidin-3-yl)-1,3-dioxoisoindolin-4-yl)oxy)hexyl)-1H-1,2,3-triazol-4-yl)pentyl)piperidin-4-yl)-1H-pyrazole-3-carboxamide]
- logk′80 [1]: 0.140
- solubility at 1.5 h (Kinetic solubility assay): 5.46 µM (≈ 4.78 µg/mL)
- retention of potency after drug washout (AML cells): retain their potency
- DC50 (CDK9 [2]): 99.9 nM
- Dmax (CDK9 [2]; MV4-11, maximum percent CDK9 degradation): 70.1%
- improvement in cytotoxicity over 4.3 (MV411 cells; 4.10 versus 4.3): over 5 fold
- IC50 (MV411 cells; Homo sapiens, MV4-11, defined as log(nM IC50), MV411, read-out: pIC50 (converted)): 50.1 nM
- IC50 (MV411 cells; Homo sapiens, MV4-11, growth inhibition, MV411 cells, MTS, read-out: IC50): 46.6 nM

SMILES: O=C1CCC(N2C(=O)c3cccc(OCCCCn4cc(CCCCN5CCC(NC(=O)c6n[nH]cc6NC(=O)c6c(Cl)cccc6Cl)CC5)nn4)c3C2=O)C(=O)N1 (centres unmarked) [Compound 4.7a, 4-(2,6-dichlorobenzamido)-N-(1-(4-(1-(4-((2-(2,6-dioxopiperidin-3-yl)-1,3-dioxoisoindolin-4-yl)oxy)buty)-1H-1,2,3-triazol-4-yl)butyl)piperidin-4-yl)-1H-pyrazole-3-carboxamide]
- logk′80 [1]: 0.100
- DC50 (CDK9 [2]): 130 nM
- Dmax (%) (CDK9 [2]; [7]): 67.5%
- pIC50 (MV411 cells; defined as log(nM IC50), MV411): 2.4
- IC50 (MV411 cells; [8]): 241 nM
- Solubility [3]: 12.4 µM (≈ 10.3 µg/mL)
